“And” between values parts separate entries of the source, which are not always exact repeats. Identical values can stand only once. Toxic doses and inconclusive results are not listed.
System: BDF1 mice, P388 leukemia ip, median survival T/C
Test: NCI In Vivo Anticancer Drug Screen. Data for tumor model P388 Leukemia (intraperitoneal) in B6D2F1 (BDF1) mice
Details: endpoint: median survival time, higher = longer survival
In short: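 Compound-treated tumour-bearing mice were compared with vehicle-treated controls. Survival was recorded, and the value is the treated-group measurement divided by the control-group measurement (T/C).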

[1] = dose: 12.5 mg/kg/injection, schedule: Q04DX003 (ip), vehicle: saline
[2] = dose: 25.0 mg/kg/injection, schedule: Q04DX003 (ip), vehicle: saline
[3] = dose: 400.0 mg/kg/injection, schedule: Q04DX003 (ip), vehicle: saline
[4] = dose: 100.0 mg/kg/injection, schedule: Q04DX003 (ip), vehicle: saline with Tween-80

Compound: O=C1C=CC(=O)O1 (tested in a mixture with another compound)
- T/C (dose: 0.19 mg/kg/injection, schedule: Q01DX009 (ip), vehicle: Klucel (hydroxypropylcellulose) (HPC)): 100 % of control
- T/C (dose: 0.22 mg/kg/injection, schedule: Q01DX009 (ip), vehicle: Klucel (hydroxypropylcellulose) (HPC)): 95 % of control
- T/C (dose: 0.39 mg/kg/injection, schedule: Q01DX009 (ip), vehicle: Klucel (hydroxypropylcellulose) (HPC)): 118 % of control
- T/C (dose: 0.44 mg/kg/injection, schedule: Q01DX009 (ip), vehicle: Klucel (hydroxypropylcellulose) (HPC)): 90 % of control
- T/C (dose: 0.78 mg/kg/injection, schedule: Q01DX009 (ip), vehicle: Klucel (hydroxypropylcellulose) (HPC)): 90 % of control
- T/C (dose: 0.88 mg/kg/injection, schedule: Q01DX009 (ip), vehicle: Klucel (hydroxypropylcellulose) (HPC)): 95 % of control
- T/C (dose: 1.3 mg/kg/injection, schedule: Q01DX009 (ip), vehicle: Klucel (hydroxypropylcellulose) (HPC)): 109 % of control
- T/C (dose: 1.56 mg/kg/injection, schedule: Q01DX009 (ip), vehicle: other): 95 % of control
- T/C (dose: 2.3 mg/kg/injection, schedule: Q04DX003 (ip), vehicle: Klucel (hydroxypropylcellulose) (HPC)): 91 % of control
- T/C (dose: 3.5 mg/kg/injection, schedule: Q04DX003 (ip), vehicle: Klucel (hydroxypropylcellulose) (HPC)): 116 % of control
- T/C (dose: 5.2 mg/kg/injection, schedule: Q04DX003 (ip), vehicle: Klucel (hydroxypropylcellulose) (HPC)): 100 % of control
- T/C (dose: 5.8 mg/kg/injection, schedule: Q04DX003 (ip), vehicle: Klucel (hydroxypropylcellulose) (HPC)): 100 % of control
- T/C (dose: 6.25 mg/kg/injection, schedule: Q01DX009 (ip), vehicle: saline): 88 % of control
- T/C (dose: 7.2 mg/kg/injection, schedule: Q04DX003 (ip), vehicle: Klucel (hydroxypropylcellulose) (HPC)): 95 % of control
- T/C (dose: 8.8 mg/kg/injection, schedule: Q04DX003 (ip), vehicle: Klucel (hydroxypropylcellulose) (HPC)): 100 % of control
- T/C (dose: 12.5 mg/kg/injection, schedule: Q01DX009 (ip), vehicle: saline): 97 % of control
- T/C [1]: 104 % of control
- T/C (dose: 13.0 mg/kg/injection, schedule: Q04DX003 (ip), vehicle: Klucel (hydroxypropylcellulose) (HPC)): 104 % of control
- T/C [2]: 102 % of control
- T/C (dose: 50.0 mg/kg/injection, schedule: Q01DX009 (ip), vehicle: saline): 102 % of control and 112 % of control and 113 % of control
- T/C (dose: 50.0 mg/kg/injection, schedule: Q04DX003 (ip), vehicle: saline): 115 % of control and 122 % of control and 116 % of control
- T/C (dose: 150.0 mg/kg/injection, schedule: Q04DX003 (ip), vehicle: saline): 122 % of control
- T/C (dose: 200.0 mg/kg/injection, schedule: Q01DX009 (ip), vehicle: saline): 94 % of control [middle of 4 runs]
- T/C (dose: 300.0 mg/kg/injection, schedule: Q01DX009 (ip), vehicle: saline): 100 % of control
- T/C (dose: 300.0 mg/kg/injection, schedule: Q04DX003 (ip), vehicle: saline): 108 % of control and 114 % of control
- T/C [3]: 121 % of control

Compound: c1ccc2c[n+]3cc4ccccc4cc3cc2c1
- T/C (dose: 8.75 mg/kg/injection, schedule: Q01DX009 (ip), vehicle: saline): 95 % of control
- T/C [1]: 91 % of control
- T/C (dose: 17.5 mg/kg/injection, schedule: Q01DX009 (ip), vehicle: saline): 100 % of control
- T/C [2]: 100 % of control

Compound: CN1COC(OC2CSC2)C(C)(C)C1 (configuration not stated)
- T/C [4]: 117 % of control
- T/C (dose: 200.0 mg/kg/injection, schedule: Q04DX003 (ip), vehicle: saline with Tween-80): 114 % of control
- T/C (dose: 400.0 mg/kg/injection, schedule: Q04DX003 (ip), vehicle: saline with Tween-80): 115 % of control

Compound: CCOC(=O)C(Cc1ccc(N(CCCl)CCCl)cc1)NC(=O)C(Cc1ccc([N+](=O)[O-])cc1)NC(C)=O (configuration not stated)
- T/C (dose: 5.0 mg/kg/injection, schedule: Q04DX003 (ip), vehicle: other): 105 % of control
- T/C (dose: 10.0 mg/kg/injection, schedule: Q04DX003 (ip), vehicle: other): 96 % of control
- T/C (dose: 20.0 mg/kg/injection, schedule: Q04DX003 (ip), vehicle: other): 99 % of control
- T/C (dose: 40.0 mg/kg/injection, schedule: Q04DX003 (ip), vehicle: other): 99 % of control

Compound: CCCCCCCC(=O)OCC(=O)[C@]1(O)Cc2c(O)c3c(c(O)c2[C@@H](OC2CC(N)C(O)C(C)O2)C1)C(=O)c1c(OC)cccc1C3=O (some centres not stated)
- T/C (dose: 0.5 mg/kg/injection, schedule: Q01DX009 (ip), vehicle: water): 204 % of control
- T/C (dose: 1.0 mg/kg/injection, schedule: Q01DX009 (ip), vehicle: water): 254 % of control and 190 % of control
- T/C (dose: 1.0 mg/kg/injection, schedule: Q04DX003 (ip), vehicle: water): 207 % of control
- T/C (dose: 2.0 mg/kg/injection, schedule: Q01DX009 (ip), vehicle: water): 231 % of control and 311 % of control
- T/C (dose: 2.0 mg/kg/injection, schedule: Q04DX003 (ip), vehicle: water): 264 % of control
- T/C (dose: 2.5 mg/kg/injection, schedule: Q04DX003 (ip), vehicle: water): 116 % of control
- T/C (dose: 2.88 mg/kg/injection, schedule: Q04DX003 (ip), vehicle: water): 215 % of control
- T/C (dose: 4.0 mg/kg/injection, schedule: Q01DX009 (ip), vehicle: water): 90 % of control
- T/C (dose: 4.0 mg/kg/injection, schedule: Q04DX003 (ip), vehicle: water): 271 % of control
- T/C (dose: 4.8 mg/kg/injection, schedule: Q04DX003 (ip), vehicle: water): 339 % of control
- T/C (dose: 10.0 mg/kg/injection, schedule: Q04DX003 (ip), vehicle: water): 174 % of control
- T/C (dose: 40.0 mg/kg/injection, schedule: Q04DX003 (ip), vehicle: water): 100 % of control

Compound: CCn1c2ccccc2c2cc(NC(=O)N(CCCl)N=O)ccc21
- T/C (dose: 100.0 mg/kg/injection, schedule: Q01DX009 (ip), vehicle: saline sonified): 170 % of control
- T/C (dose: 200.0 mg/kg/injection, schedule: Q01DX009 (ip), vehicle: saline sonified): 150 % of control
- T/C (dose: 400.0 mg/kg/injection, schedule: Q01DX009 (ip), vehicle: saline sonified): 185 % of control

Compound: Cc1cc(N(CCO)CCO)c2cc3ccc4cccc5ccc(c2n1)c3c45
- T/C (dose: 25.0 mg/kg/injection, schedule: Q04DX003 (ip), vehicle: saline with Tween-80): 98 % of control
- T/C (dose: 50.0 mg/kg/injection, schedule: Q04DX003 (ip), vehicle: saline with Tween-80): 110 % of control
- T/C [4]: 93 % of control and 100 % of control

Compound: [Ni+2].[SH2+]C([SH2+])=Nc1ccccc1.[SH2+]C([SH2+])=Nc1ccccc1.c1ccc(C[P+](c2ccccc2)(c2ccccc2)c2ccccc2)cc1
- T/C (dose: 0.5 mg/kg/injection, schedule: Q01DX009 (ip), vehicle: saline): 115 % of control
- T/C (dose: 1.0 mg/kg/injection, schedule: Q01DX009 (ip), vehicle: saline): 95 % of control and 120 % of control
- T/C (dose: 1.0 mg/kg/injection, schedule: Q04DX003 (ip), vehicle: other): 95 % of control
- T/C (dose: 3.0 mg/kg/injection, schedule: Q01DX009 (ip), vehicle: saline): 118 % of control and 120 % of control
- T/C (dose: 3.0 mg/kg/injection, schedule: Q04DX003 (ip), vehicle: other): 108 % of control
- T/C (dose: 4.0 mg/kg/injection, schedule: Q01DX009 (ip), vehicle: saline): 100 % of control
- T/C (dose: 6.0 mg/kg/injection, schedule: Q01DX009 (ip), vehicle: saline): 104 % of control and 105 % of control
- T/C (dose: 6.0 mg/kg/injection, schedule: Q04DX003 (ip), vehicle: other): 95 % of control
- T/C (dose: 9.0 mg/kg/injection, schedule: Q01DX009 (ip), vehicle: saline): 110 % of control and 118 % of control
- T/C (dose: 10.0 mg/kg/injection, schedule: Q01DX009 (ip), vehicle: Klucel (hydroxypropylcellulose) (HPC)): 115 % of control

Compound: CCNC(=NC)c1ccc(NC(=O)c2ccc(C(=O)Nc3ccc(C(=NC)NCC)cc3)cc2)cc1
- T/C (dose: 3.9 mg/kg/injection, schedule: Q01DX009 (ip), vehicle: saline with Tween-80): 118 % of control
- T/C (dose: 4.0 mg/kg/injection, schedule: Q01DX009 (ip), vehicle: saline with Tween-80): 179 % of control
- T/C (dose: 9.0 mg/kg/injection, schedule: Q01DX009 (ip), vehicle: saline with Tween-80): 109 % of control

Compound: CC(C)C(O)(C(=O)OCC1=CC[N+]2([O-])CCC(O)C12)C(C)O (configuration not stated)
- T/C (dose: 200.0 mg/kg/injection, schedule: Q01DX006 (ip), vehicle: water): 110 % of control
- T/C (dose: 800.0 mg/kg/injection, schedule: Q01DX006 (ip), vehicle: water): 100 % of control
- T/C (dose: 1600.0 mg/kg/injection, schedule: Q01DX006 (ip), vehicle: water): 94 % of control

Compound: CC1CCCC(C)(CO)O1 (configuration not stated)
- T/C (dose: 100.0 mg/kg/injection, schedule: Q04DX003 (ip), vehicle: saline): 115 % of control
- T/C (dose: 200.0 mg/kg/injection, schedule: Q04DX003 (ip), vehicle: saline): 115 % of control
- T/C [3]: 105 % of control

Compound: CC(NC1=NCCO1)c1cccc2ccccc12 (configuration not stated)
- T/C (dose: 100.0 mg/kg/injection, schedule: Q01DX001 (ip), vehicle: saline with Tween-80): 91 % of control
- T/C (dose: 200.0 mg/kg/injection, schedule: Q01DX001 (ip), vehicle: saline with Tween-80): 91 % of control
- T/C (dose: 400.0 mg/kg/injection, schedule: Q01DX001 (ip), vehicle: saline with Tween-80): 91 % of control

Source: PubChem BioAssay AID328 (DTP/NCI, 2004)
